Data reported in patent US9426950B2, “Production of Deschampsia antartica in bioreactors” (priority 2012, dated 2016).

Legend:
D. antarctica explants [1] = test: Effect of osmoregulating agents on D. antarctica explants cultivated in temporary immersion bioreactors; assay type: in vivo; settings: for fresh weight: glucose 5 gL−1 and 20 gL−1, sodium chloride 5 gL−1 (FIG. 5); for degree of oxidation (scale of Table 1): in vivo
Excerpt: The Deschampsia antarctica plants were reproduced in bioreactors with a liquid culture medium. The nutritive growth conditions were formulated using the inorganic salts proposed by (Murashige, 1973) (MS), supplemented with saccharose 30 gL^−1. In order to determine the conditions needed to obtain high growth and morphophysiological development rates for the tissues, an evaluation was done of the immersion frequency conditions and the addition of osmotic and growth regulating agents.
The regulation of the culture medium's hydric potential determines the quality of the morphogenic response of the plants being cultivated in vitro, especially in systems using liquid culture media (Hua et at, 2010; Stanly et al., 2010). The experiment consisted of evaluating the effect of osmoregulating agents at different concentrations [mannitol (10 and 20 gL-1), glucose (5 and 20 gL-1), polyethylene glycol (5 and 10 gL^−1), and NaCl (5, 10, and 20 gL-1)] on the morphogenic response and biomass production of D. antarctica.
In each bioreactor, 100 plants from the semisolid culture (SSS) that were more than 2 cm tall, with well-developed, expanded leaves, were inoculated in triplicate. The dead leaves and oxidized tissue that grows around the crown of the plants were removed. The bioreactors' initial volume was adjusted to 1000 ml per cultivation jar. A 12-hour immersion frequency was used, with an immersion time of 300 seconds and an aeration time of 60 minutes.
The average initial weight of the explants in each treatment was taken. The repetitions were distributed randomly in the culture trays.
The effect of the osmoregulators was evaluated with the following variables: Increase in fresh weight (FW) per treatment, increase in fresh weight per explant, multiplication rate, explant survival rate, and degree of oxidation.
To calculate survival, live explants were assigned a value of 1, while dead explants were assigned a value of 0. The data was entered into a double-entry matrix where the osmoregulator-type factor is compared to the survival variable. A scale of the explants' damage from phenolization was developed to calculate the degree of oxidation, and is described in Table 1.
The degree of oxidation was calculated using the Townsend and Neuberger formula (1943), which considers the frequency and intensity with which the explant damage occurs, using the equation:
[formula] Where: • P=weighted degree of severity of oxidation • n=number of explants for each category in the scale • v=numerical value of each category • CM=largest category • N=total number of explants in the sample
The percentage of explants oxidized in treatment was also calculated, using the equation:
[formula] Where: • % O=percentage of explants oxidized in each treatment • EO=number of oxidized explants in the sample • ET=total number of explants evaluated in the sample
To determine the average increase in fresh weight (IFW) in each treatment, the initial weight of the inoculated explants in each bioreactor was taken (including an experimental unit) and then averaged. The fresh weight data was collected at the end of each repetition in each treatment. The increase in fresh weight was calculated using the equation: IFW=FWf−FWo Equation 3 Where: • IFW=average fresh weight increase in each treatment • FWf=average final fresh weight of the biomass in each treatment • FWo=average initial fresh weight of the biomass in each treatment
To determine the average fresh weight increase per explant (IFWe) for each treatment, each explant was measured at the beginning and end of the test for each repetition, and the averages were calculated. The fresh weight increase was calculated using the equation: IFWe=FWef−FWeo Equation 4 Where: • IFWe=average fresh weight increase per explant • FWef=average final fresh weight of the biomass in each bioreactor • FWeo=average initial fresh weight of the biomass in each bioreactor. […]

D. antarctica explants [2] = test: Effect of growth regulators on D. antarctica's morphogenic response and biomass production in bioreactors (SIT); assay type: in vivo, Deschampsia antarctica; settings: for type of morphogenic response (roots / shoots): AIB with BAP or alone, BAP alone or ratio favoring BAP; for reproduction rate / organogenic response: SIT method (FIG. 7); for survival of explants compared with the control treatment: growth regulators in the culture medium, bioreactors (FIG. 6); for biomass production: treatments supplemented with growth regulators (FIG. 9)
Excerpt: In order to determine the appropriate composition of growth regulators for explant propagation and to establish the differences in the physical state of the liquid culture medium compared to the semisolid medium, a comparative study was done on the effect of growth regulators on the culture medium using the SIT method and the conventional propagation method, SSS. To determine the growth regulators' effect on D. antarctica's morphogenic response and biomass formation, a study was done on the effect of combining the cytokinin 6-benzylaminopurine (6-BAP) (0.0; 0.5; 1.0; and 3.0 mgL-1) with the auxin indolbutyric acid (AIB) (0.0; 0.1; 0.25; and 0.5 mgL^−1). Likewise, a study was done of the effect of a set concentration of gibberellic acid (3 mgL-1) combined with the auxins and cytokinins and their isolated effect in the culture medium. Gibberellic acid is associated with the elongation of tissues, and it could play a significant role in biomass growth.
For each bioreactor, 50 to 60 explants with the phenotype characteristics indicated in the osmotic agent test were used in 1000 ml of nutritive medium for each condition, keeping an initial treatment weight of 2 grams. For the SSS method, 25 explants were used in Petri dishes with 40 ml of a medium gelled with agar (Gelzan′) at a rate of 2.5 gL^−1.
A 12-hour immersion frequency was used, with immersion times of 3 minutes and aeration times of 5 minutes.
For this test, the total weight of inoculated biomass was adjusted at 2.0 g per bioreactor. Therefore, the number of plants per bioreactor varied, and the distribution of weight and size during inoculation was random. The experimental unit was the explant.
The effect of the growth regulators was evaluated with the following variables: Increase in fresh weight (FW) per treatment, increase in fresh weight/explant, reproduction rate, survival of explants, and degree of oxidation; all of the same criteria used in the test with osmotic agents.
A sample of 25 explants was taken for each treatment in order to measure the different variables.

D. antarctica explants [3] = test: Effect of osmoregulating agents on D. antarctica explants cultivated in temporary immersion bioreactors; assay type: in vivo; settings: glucose 5 gL−1; mannitol 5 gL−1; PEG 5 gL−1 and 20 gL−1 (FIG. 4)

SMILES | fresh weight (D. antarctica explants [1]) | type of morphogenic response (roots / shoots) (D. antarctica explants [2]) | reproduction rate / organogenic response (D. antarctica explants [2]) | survival of explants compared with the control treatment (D. antarctica explants [2]) | biomass production (D. antarctica explants [2]) | degree of oxidation (scale of Table 1) (D. antarctica explants [1]) | reproduction rate (D. antarctica explants [3]) | other results
[Cl-].[Na+] [sodium chloride] | increased significantly | – | – | – | – | – | – | decrease of fresh weight (D. antarctica explants [1]; increased concentration of sodium chloride (FIG. 5)): 60%; survival of the explants (D. antarctica explants [1]; three concentrations of sodium chloride studied (5, 10, 20 gL-1)): significantly affected the survival of the explants
O=C(O)CCCc1c[nH]c2ccccc12 [AIB, indolbutyric acid] | – | induced root formation | did not have a significant effect on the reproduction rate | Neither the addition of AIB or BAP, nor the combination of these growth regulators, significantly increased the survival | increased significantly | – | – | –
C=C1C[C@]23C[C@@]1(O)CC[C@H]2[C@@]12C=C[C@H](O)[C@@](C)(C(=O)O1)[C@H]2[C@@H]3C(=O)O [GA3, gibberellic acid] | – | – | significantly reduced the reproduction rate | significantly lower than the control treatment | – | – | – | –
O=C[C@H](O)[C@@H](O)[C@H](O)[C@H](O)CO [glucose] | increased significantly | – | – | – | – | degree 1 | greatest | survival rate (D. antarctica explants [1]; glucose at 5 gL−1, temporary immersion bioreactors): 100%; reduction of the explants' survival rate (D. antarctica explants [1]; glucose concentration increased to 20 gL-1): up to 50%; explants' growth (D. antarctica explants [1]; increased concentrations of glucose): did not significantly affect the explants' growth
OC[C@@H](O)[C@@H](O)[C@H](O)[C@H](O)CO [mannitol] | – | – | – | – | – | degree 1 | statistically different from the control treatment | –
c1ccc(CNc2ncnc3nc[nH]c23)cc1 [BAP, 6-benzylaminopurine] | – | induced only shoot formation or the development of aerial biomass | sufficient to induce efficient organogenic responses | Neither the addition of AIB or BAP, nor the combination of these growth regulators, significantly increased the survival | increased significantly | – | – | –
